The record followed here is patent US4579866A, “Phenylacetamides as anti-allergy, anti-asthma and anti-inflammatory agents” (USV Pharmaceutical Corp., priority 1984, dated 1986).

The assay addresses T1, HUMAN 5 LIPOXYGENASE (Homo sapiens, UniProt P09917).
T1 construct: A suspension of human neutrophils in buffer; endogenous in cells; host or cells: human neutrophils (PMNs) from venous blood of healthy volunteers
T1 sequence (P09917 1-674): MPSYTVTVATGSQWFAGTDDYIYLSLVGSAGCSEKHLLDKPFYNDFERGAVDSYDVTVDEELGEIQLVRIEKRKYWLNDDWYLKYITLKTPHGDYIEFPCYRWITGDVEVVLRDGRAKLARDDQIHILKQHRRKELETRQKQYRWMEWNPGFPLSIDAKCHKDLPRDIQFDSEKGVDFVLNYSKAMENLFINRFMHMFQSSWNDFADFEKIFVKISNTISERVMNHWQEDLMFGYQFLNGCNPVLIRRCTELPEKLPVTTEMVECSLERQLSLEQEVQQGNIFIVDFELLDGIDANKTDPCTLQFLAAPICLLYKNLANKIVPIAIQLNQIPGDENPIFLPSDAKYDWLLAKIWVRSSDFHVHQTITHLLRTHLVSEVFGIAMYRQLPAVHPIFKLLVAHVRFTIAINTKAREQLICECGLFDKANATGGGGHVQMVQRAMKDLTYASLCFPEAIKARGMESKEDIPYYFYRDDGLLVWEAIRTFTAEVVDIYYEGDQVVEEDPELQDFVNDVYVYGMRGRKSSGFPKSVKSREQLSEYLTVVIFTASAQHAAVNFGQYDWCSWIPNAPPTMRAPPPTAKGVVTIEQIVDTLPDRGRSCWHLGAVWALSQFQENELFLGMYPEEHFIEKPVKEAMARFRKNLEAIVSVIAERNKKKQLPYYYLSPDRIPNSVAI
Briefly: Biosynthesis of 5-HETE by human polymorphonuclear leukocytes in vitro (inhibition of human 5-lipoxygenase). It counts as cell-based. As to conditions: human neutrophils, A23187, 3 minutes at 30° C.; concentration at which 50% inhibition is observed; read-out: INHIBITION OF HUMAN 5 LIPOXYGENASE, I50. Here is the method: Protocol for the Biosynthesis of 5-HETE (5(S)-Hydroxyeicosatetraenoic Acid) by Human Polymorphonuclear Leukocytes In Vitro
(A) Isolation of Human Neutrophils
Freshly drawn venous blood from healthy human volunteers is mixed with 2 mM ethylenediamine tetraacetic acid, and is sedimented at 1×g over 6% dextran-saline. The leukocyte layer is aspirated, and the cells are concentrated by centrifugation and are layered over stacked Percoll® solutions, having densities of 1.072, 1.082 and 1.100, respectively. PMNs are isolated at the interface between the two densest layers after centrifugation at 400×g. Contaminating red blood cells are lysed by a short treatment of 0.16M ammonium chloride.
A suspension of human neutrophils in buffer is incubated for 3 minutes at 30° C. with (^14 C)-arachidonic acid (AA) and calcium ionophore A23187. Citric Acid (2M)/NDGA*(10 mM) is used to quench the reaction. Following the addition of a trace amount of (^3 H)-5-HETE together with an excess of unlabeled 5-HETE to each tube, the mixture is extracted with chloroform/methanol. The organic layer is washed with dilute hydrochloric acid and the total volume is transferred to glass tubes and dried in vacuo. The residue is dissolved in a small volume of chloroform and is spotted on silica gel TLC sheets, which are developed with an ethyl acetate/iso-octane/water/acetic acid solvent system (11/5/10/1 v/v). The 5-HETE spots are visualized under UV light, cut out and placed in scintillation vials for quantitation of radioactivity. After adjusting for the extraction efficiency, the amount (pmole) of (^14 C)-5-HETE in each of the tubes is calculated. The net pmoles of 5-HETE are obtained by subtracting the pmole of 5-HETE in the tubes containing buffer alone (blank) from the pmoles of 5-HETE in the tubes containing […]. The ability of the test compound to modulate the activity of this enzyme is determined by a decrease or increase in the net amount of 5-HETE produced. This assay is a modification of that described by Bach and Brashler for rat peritoneal cells: Bach, M., Brashler, J.: Ionophore A23187-Induced Production of SRS-A by Rat Peritoneal Cells In Vitro: Evidence for Production by Mononuclear Cells. J. Immunol. 120 998-1005 (1978).
*NDGA-nordihydroguaiaretic acid
If the percentage of inhibition exceeds 50%, the compounds are then evaluated in terms of response over a range of concentrations. From a plot of response against concentration, the I50 value is obtained. The I50 value is the concentration at which 50% inhibition is observed.
For `CCCOc1ccc(CC(=O)N[C@H](Cc2ccccc2)C(=O)OC)cc1Cl` [3-Chloro-4-n-propyloxyphenylacetyl-D-phenylalanine methyl ester], the IC50 came out at 6 µM. In the case of `C#CCOc1ccc(CC(=O)N[C@H](Cc2ccccc2)C(=O)OC)cc1Cl` [3-Chloro-4-propargyloxyphenylacetyl-D-phenylalanine methyl ester] it was 1.5 µM. In the case of `CN(CC(O)c1ccccc1)C(=O)Cc1ccc(OCCc2ccccc2)c(Cl)c1` (stereo not shown) [N--[3-Chloro-4-phenylethyloxyphenylacetyl]-N--methyl-2-hydroxy-2-phenyl-ethyl-amine] it was 10 µM; in that of `C=CCOc1ccc(CC(=O)N(C)CCc2ccccc2)cc1Cl` [N--[4-Alloyoxy-3-chlorophenylacetyl]-N--methyl-2-phenylethylamine], 2 µM.
